Our source for the EC50 values is BindingDB's records for doi:10.1016/j.bmcl.2004.08.011 (Abbott Laboratories, 2004).

As usually defined, the EC50 is the midpoint of the concentration-response curve.

In this test the target is Protein farnesyltransferase subunit beta/geranylgeranyltransferase type-1 subunit alpha (Mus musculus, UniProt Q61239+Q8K2I1). Nature of the test: Inhibition of H-Ras transformed NIH-3T3-cell proliferation.
`CCOc1cccc(-c2cc(C#N)ccc2COCc2cncn2Cc2ccc(Cl)cc2)c1` [6-(((1-(4-chlorobenzyl)-1H-imidazol-5-yl)methoxy)methyl)-3'-ethoxybiphenyl-3-carbonitrile] gave an EC50 of 34 nM.

In the case of `N#Cc1ccc(Cn2cncc2COCc2ccc(C#N)cc2-c2ccc(C(F)(F)F)cc2)cc1` [6-(((1-(4-cyanobenzyl)-1H-imidazol-5-yl)methoxy)methyl)-4'-(trifluoromethyl)biphenyl-3-carbonitrile], the EC50 stood at 1.6 nM.

Regarding `N#Cc1ccc(OCc2cncn2Cc2ccc(C#N)c(-c3cccc4ccccc34)c2)nc1` [6-[3-(4-Cyano-3-naphthalen-1-yl-benzyl)-3H-imidazol-4-ylmethoxy]-nicotinonitrile], the response was half-maximal at 60 nM (EC50).

With `N#Cc1ccc(COCc2cncn2Cc2ccc(C#N)cc2-c2cccc3ccccc23)cc1` [4-[5-(4-cyano-benzyloxymethyl)-imidazol-1-ylmethyl]-3-naphthalen-1-yl-benzonitrile], the midpoint of the response, the EC50, lay at 461 nM.

Turning to `CCOc1cccc(-c2cc(C#N)ccc2COCc2cncn2Cc2ccc(C#N)nc2)c1` [5-((5-(((5-cyano-3'-ethoxybiphenyl-2-yl)methoxy)methyl)-1H-imidazol-1-yl)methyl)picolinonitrile], the EC50 came out at 17 nM.

In turn, `N#Cc1ccc(Cn2cncc2COCc2ccc(C#N)cc2-c2cccc(Cl)c2)nc1` [6-[5-(3''-Chloro-5-cyano-biphenyl-2-ylmethoxymethyl)-imidazol-1-ylmethyl]-nicotinonitrile] gave an EC50 of 155 nM.

With `N#Cc1ccc(Cn2cncc2COCc2ccc(C#N)cc2-c2ccc3c(c2)OCO3)nc1` [6-((5-((2-(benzo[d][1,3]dioxol-5-yl)-4-cyanobenzyloxy)methyl)-1H-imidazol-1-yl)methyl)nicotinonitrile], the EC50 came out at 29 nM.

For the molecule `CC(=O)c1ccc(-c2cc(C#N)ccc2COCc2cncn2Cc2ccc(C#N)cc2)cc1` [4'-acetyl-6-(((1-(4-cyanobenzyl)-1H-imidazol-5-yl)methoxy)methyl)biphenyl-3-carbonitrile], the EC50 turned out to be 77 nM.

In turn, `N#Cc1ccc(Cn2cncc2COc2ccc(C#N)c(-c3cccc4ccccc34)c2)cc1` [4-((1-(4-cyanobenzyl)-1H-imidazol-5-yl)methoxy)-2-(naphthalen-1-yl)benzonitrile] had an EC50 of 1.2 nM.

Consider `N#Cc1ccc(COCc2cncn2Cc2ccc(C#N)nc2)c(-c2ccc3c(c2)OCO3)c1` [5-[5-(2-Benzo[1,3]dioxol-5-yl-4-cyano-benzyloxymethyl)-imidazol-1-ylmethyl]-pyridine-2-carbonitrile], for which a half-maximal response (EC50) required 16 nM.
